Reference: EP0501641A1, “L-2-oxothiazolidine-4-carboxylate and glutathion esters for the treatment of hepatic diseases” (CLINTEC NUTRITION COMPANY, priority 1991, dated 1992)

Experiment: Example 3: post liver transplant supplementation with glutathione methyl ester tablets, plasma glutathione monitored
Type: in vivo
Details: tablet t.i.d. containing 0.5 g, Normal Range 4.5
From the text: A person with primary biliary cirrhosis underwent liver transplant. In addition to routine post-surgery immuno-suppressive and nutritional therapies the patient received a glutathione-containing tablet t.i.d. containing 0.5 g glutathione methyl ester. The goal of the therapy was to normalize plasma and tissue glutathione status.
Plasma glutathione concentration was monitored periodically; values for Week 1 and Week 12 are given below: […]

COC(=O)CNC(=O)[C@H](CS)NC(=O)CC[C@H](N)C(=O)O [glutathione methyl ester]
Plasma Glutathione (Week 1, person after liver transplant): 1.2 µM
Plasma Glutathione (Week 12): 3.9 µM
